Results on 2 molecules are retold here after publication PMC5357725, “Global update on the susceptibility of human influenza viruses to neuraminidase inhibitors, 2014–2015” (Antiviral Research, 2016).

SMILES strings stand for the structures.

The test system of assay [1] is B/Victoria-lineage neuraminidase (NA). The assay is classed as biochemical, influenza B/Victoria-lineage virus.
The subject of assay [2] is B/Yamagata-lineage neuraminidase (NA). It counts as biochemical, influenza B/Yamagata-lineage virus.

As to `CC(=O)N[C@H]1[C@H]([C@H](O)[C@H](O)CO)OC(C(=O)O)=C[C@@H]1N=C(N)N` [Zanamivir, zanamivir], in assay [1], the “inhibition class (NI, RI, HRI)” value was “NI (key: NI: B viruses <5-fold; RI: B viruses 5- to 50-fold; HRI: B viruses >50-fold)”.
In the case of `[H]/N=C(\N)N[C@H]1C=C(C(=O)O)O[C@@H]([C@H](OC)[C@H](O)CO)[C@@H]1NC(C)=O` [Laninamivir, laninamivir], the “inhibition class (NI, RI, HRI)” value in assay [1] and in assay [2] was “NI (key: NI: B viruses <5-fold; RI: B viruses 5- to 50-fold; HRI: B viruses >50-fold)” in each case.
